Patent US20100249243A1, “NOVEL BETA-HYDROXYKETONES AND BETA-ALKOXYKETONES WITH ESTROGENIC ACTIVITY” (priority 2007, published 2010)
Read-outs that look alike come from different tables or passages of the source.

Legend:
ERα = biological target: T1, ERα (Homo sapiens, UniProt P03372); experiment: ERα luciferase reporter (pERE2TATA-LUC) transactivation assay in transfected HEK293 cells; format: cell-based; set-up: expressed in transfected cells; host or cells: HEK293; conditions: 24 hours; for ERα receptor activation relative to 10 nM E2 corresponding 100: Table 1, sample concentration 10 μM, mean of at least three independent transfections, SEM typically <15%; for ERα in vitro activity (receptor activation relative to 10 nM E2): Table 2, previously published compounds, test compound 10 μM
T1 sequence (P03372 1-595): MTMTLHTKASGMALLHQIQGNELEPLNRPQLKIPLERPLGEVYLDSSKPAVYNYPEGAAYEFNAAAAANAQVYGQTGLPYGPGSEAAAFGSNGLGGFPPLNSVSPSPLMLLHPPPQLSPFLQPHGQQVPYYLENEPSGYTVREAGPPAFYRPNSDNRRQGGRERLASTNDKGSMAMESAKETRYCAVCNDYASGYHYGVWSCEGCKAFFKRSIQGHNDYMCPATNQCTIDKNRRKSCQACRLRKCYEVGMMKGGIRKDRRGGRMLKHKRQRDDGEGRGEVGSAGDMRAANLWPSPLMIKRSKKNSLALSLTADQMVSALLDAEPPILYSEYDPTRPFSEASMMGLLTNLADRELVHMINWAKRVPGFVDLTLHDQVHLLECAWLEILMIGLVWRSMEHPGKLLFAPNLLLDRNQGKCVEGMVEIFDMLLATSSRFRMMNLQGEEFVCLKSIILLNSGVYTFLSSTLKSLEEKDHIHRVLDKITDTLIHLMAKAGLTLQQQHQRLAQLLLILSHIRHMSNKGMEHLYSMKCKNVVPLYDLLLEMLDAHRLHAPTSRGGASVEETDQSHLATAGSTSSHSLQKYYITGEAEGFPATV
Description: (§1) All other reagents were of reagent grade from Sigma or Fluka. One day before transfection, HEK293 cells were seeded in 48-well plates (70×10^3 cells per well) in phenol-free Dulbecco's modified Eagle medium supplemented with 5% delipidated fetal bovine serum (Sigma) and antibiotics. After a medium change, the cells were transfected for 4 hours with 5 ng ERα or ERβ expression vector, 75 ng reporter plasmid pERE2TATA-LUC and 20 ng control plasmid pCMVβ by the calcium phosphate method. After transfection, the cells received fresh medium containing either vehicle (0.1% v/v) or test compound (10 μM). After 24 hours, the cells were washed, lysed and luciferase and β-galactosidase activities were determined from 20 μl of lysates with the Victor^2TM reader (PerkinElmer Wallac, Turku, Finland). […] The data are means±SEM of at least three independent transfections.

ERβ = ERβ (Homo sapiens, UniProt Q92731); experiment: ERβ luciferase reporter (pERE2TATA-LUC) transactivation assay in transfected HEK293 cells; format: cell-based; set-up: expressed in transfected cells; host or cells: HEK293; conditions: for Emax at 10 µM: HEK293, 24 h; for ERβ receptor activation relative to 10 nM E2 corresponding 100: Table 1, sample concentration 10 μM, mean of at least three independent transfections, SEM typically <15%; for ERβ receptor activation relative to 10 nM E2 corresponding 100 / ERβ in vitro activity (receptor activation relative to 10 nM E2): 24 hours; for ERβ in vitro activity (receptor activation relative to 10 nM E2): Table 2, previously published compounds, test compound 10 μM
Description: as §1

[1] = read-out: ERβ receptor activation relative to 10 nM E2 corresponding 100, Table 1, sample concentration 10 μM, mean of at least three independent transfections, SEM typically <15%
[2] = read-out: ERβ in vitro activity (receptor activation relative to 10 nM E2), Table 2, previously published compounds, test compound 10 μM

Chain of ERβ (Q92731 whole entry): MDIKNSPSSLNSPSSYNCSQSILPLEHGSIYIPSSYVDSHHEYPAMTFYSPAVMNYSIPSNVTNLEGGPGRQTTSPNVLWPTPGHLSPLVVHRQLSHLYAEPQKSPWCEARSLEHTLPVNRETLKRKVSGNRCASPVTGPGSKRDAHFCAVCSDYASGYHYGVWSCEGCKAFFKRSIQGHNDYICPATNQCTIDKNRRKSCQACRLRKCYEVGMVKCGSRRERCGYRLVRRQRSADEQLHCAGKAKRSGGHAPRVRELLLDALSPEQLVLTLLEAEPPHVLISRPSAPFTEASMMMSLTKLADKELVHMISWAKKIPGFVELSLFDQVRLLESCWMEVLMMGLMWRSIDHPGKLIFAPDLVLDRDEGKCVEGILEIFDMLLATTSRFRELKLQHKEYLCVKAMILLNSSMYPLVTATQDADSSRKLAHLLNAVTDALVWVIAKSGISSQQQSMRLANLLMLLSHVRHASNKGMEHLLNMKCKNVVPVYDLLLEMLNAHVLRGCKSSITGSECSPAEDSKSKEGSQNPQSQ

| Structure (SMILES) | ERα receptor activation relative to 10 nM E2 corresponding 100 (ERα) [%] | Emax at 10 µM (ERβ; [1]) [%] | also measured |
| --- | --- | --- | --- |
| O=C(CCc1ccccc1O)CC(O)Cc1ccc(F)cc1 (stereo not drawn) [Compound 32ab, 6-(4-Fluoro-phenyl)-5-hydroxy-1-(2-hydroxy-phenyl)-hexan-3-one] | 21.6 | 11.1 | – |
| COC(CC(=O)CCCc1ccccc1)Cc1ccccc1 (stereo not drawn) [Compound 51ab, 2-Methoxy-1,7-diphenyl-heptan-4-one] | 24.5 | 30.4 | – |
| COc1ccccc1CC(=O)CC(O)CCc1cccc(F)c1 (single isomer, unassigned) [Compound 22b, 6-(3-Fluorophenyl)-4-hydroxy-1-(2-methoxyphenyl)-2-hexanone] | 5.6 | 2.9 | – |
| O=C(CCCc1ccccc1)CC(O)Cc1ccc(O)cc1 (stereo not drawn) [Compound 39ab, 2-Hydroxy-1-(4-hydroxy-phenyl)-7-phenyl-heptan-4-one] | 16.0 | 2.4 | – |
| COc1ccc(C(=O)CC(O)Cc2ccc(OCCN(C)C)cc2)cc1 (stereo not drawn) [Compound 12ab, 4-[4-(2-Dimethylamino-ethoxy)phenyl]-3-hydroxy-1-(4-methoxy-phenyl)-butan-1-one] | 0 | -8.7 | – |
| O=C(CCc1ccccc1)CC(O)Cc1ccc2ccccc2c1 (single isomer, unassigned) [Compound 28b, 5-Hydroxy-6-naphthalen-2-yl-1-phenyl-hexan-3-one] | 20.1 | – | ERβ receptor activation relative to 10 nM E2 corresponding 100 (ERβ): 20.1% |
| CC(O)(CC(=O)CCCc1ccccc1)c1ccccc1 (stereo not drawn) [Compound 60ab, 6-Hydroxy-1,6-diphenyl-heptan-4-one] | – | – | ERα in vitro activity (receptor activation relative to 10 nM E2) (ERα): 83.3%; Emax at 10 µM (ERβ; [2]): 15.1% |
| O=C(CCCc1ccc(O)c(O)c1)CC(O)Cc1ccccc1 (stereo not drawn) [Compound 41ab, 2-Hydroxy-7-(3,4-dihydroxy-phenyl)-1-phenyl-heptan-4-one] | −0.5 | -0.8 | – |
| O=C(CCCc1ccc(O)cc1)CC(O)c1cccc(O)c1 (single isomer, unassigned) [Compound 35b, 1-Hydroxy-1-(3-hydroxy-phenyl)-6-(4-hydroxy-phenyl)-hexan-3-one] | 49.3 | – | ERβ receptor activation relative to 10 nM E2 corresponding 100 (ERβ): 43.8% |
| COC(CC(=O)CCc1ccccc1)Cc1ccc(F)cc1 (stereo not drawn) [Compound 48ab, 5-Methoxy-6-(4-fluorophenyl)-1-phenyl-hexan-3-one] | 33.1 | 11.2 | – |
| O=C(CCc1ccccc1)CC(O)Cc1cccc2ccccc12 (stereo not drawn) [Compound 27ab, 5-Hydroxy-6-naphthalen-1-yl-1-phenyl-hexan-3-one] | 12.1 | 1.7 | – |
| O=C(CCc1ccccc1)CC(O)c1ccccc1 (single isomer, unassigned) [Compound 56a, 1-Hydroxy-1,5-diphenyl-pentan-3-one] | – | – | ERα in vitro activity (receptor activation relative to 10 nM E2) (ERα): 78.8%; ERβ in vitro activity (receptor activation relative to 10 nM E2) (ERβ): 20.5% |
| O=C(CC(O)Cc1ccccc1)c1ccccc1 (stereo not drawn) [Compound 53ab, 3-Hydroxy-1,4-diphenyl-butan-1-one] | – | – | ERα in vitro activity (receptor activation relative to 10 nM E2) (ERα): 5.3%; Emax at 10 µM (ERβ; [2]): 16.9% |
| COC(CC(=O)CCc1ccccc1)Cc1ccccc1 (stereo not drawn) [Compound 46ab, 5-Methoxy-1,6-diphenyl-hexan-3-one] | 9.9 | 1.3 | – |
| COc1ccc(CC(O)CC(=O)CCc2ccccc2)cc1 (single isomer, unassigned) [Compound 24b, 5-Hydroxy-6-(4-methoxyphenyl)-1-phenyl-hexan-3-one] | 1.3 | – | ERβ receptor activation relative to 10 nM E2 corresponding 100 (ERβ): 1.2% |
| O=C(CC(O)CCc1ccccc1)c1ccccc1 (single isomer, unassigned) [Compound 54a, 3-Hydroxy-1,5-diphenyl-pentan-1-one] | – | – | ERα in vitro activity (receptor activation relative to 10 nM E2) (ERα): 3.0%; ERβ in vitro activity (receptor activation relative to 10 nM E2) (ERβ): 1.1% |
| O=C(CCCc1ccccc1)CC(O)CCc1ccccc1 (stereo not drawn) [Compound 43ab, 6-Hydroxy-1,8-diphenyl-octan-4-one] | 2.2 | -7.1 | – |
| O=C(Cc1ccccc1)CC(O)CCc1ccccc1 (stereo not drawn) [Compound 20ab, 4-Hydroxy-1,6-diphenylhexan-2-one] | 4.3 | 0.2 | – |
| O=C(CCCc1ccc(O)cc1)CC(O)Cc1ccc(O)cc1 (single isomer, unassigned) [Compound 42b, 2-Hydroxy-1,7-di-(4-hydroxy-phenyl)-heptan-4-one] | 2.8 | – | ERβ receptor activation relative to 10 nM E2 corresponding 100 (ERβ): −1.6% |
| COC(CC(=O)CCc1ccccc1)Cc1ccc2ccccc2c1 (stereo not drawn) [Compound 50ab, 5-Methoxy-6-naphthalen-2-yl-1-phenyl-hexan-3-one] | 30.4 | 12.4 | – |
| CC(O)(CC(=O)CCCc1ccc(O)cc1)c1ccccc1 (stereo not drawn) [Compound 37ab, 6-Hydroxy-1-(4-hydroxy-phenyl)-6-phenyl-heptan-4-one] | 90.9 | 103 | – |
| O=C(Cc1ccccc1)CC(O)c1ccccc1 (stereo not drawn) [Compound 55ab, 4-Hydroxy-1,4-diphenyl-butan-2-one] | – | – | ERα in vitro activity (receptor activation relative to 10 nM E2) (ERα): 0.8%; Emax at 10 µM (ERβ; [2]): 1.6% |
| O=C(CCCc1ccccc1)CC(O)Cc1ccccc1 (stereo not drawn) [Compound 38ab, 2-Hydroxy-1,7-diphenyl-heptan-4-one] | 24.7 | 9.1 | – |
| O=C(CCc1ccccc1)CC(O)Cc1ccc2ccccc2c1 (single isomer, unassigned) [Compound 28a, 5-Hydroxy-6-naphthalen-2-yl-1-phenyl-hexan-3-one] | 12.4 | – | ERβ receptor activation relative to 10 nM E2 corresponding 100 (ERβ): 6.4% |
| COC(CCc1ccccc1)CC(=O)CCCc1ccccc1 (stereo not drawn) [Compound 52ab, 3-Methoxy-1,8-diphenyl-octan-5-one] | 3.1 | -14.6 | – |
| COC(CC(=O)CCc1ccccc1)Cc1cccc2ccccc12 (stereo not drawn) [Compound 49ab, 5-Methoxy-6-naphthalen-1-yl-1-phenyl-hexan-3-one] | 35.5 | 2 | – |
| COc1ccc(CC(CC(=O)CCc2ccccc2)OC)cc1 (stereo not drawn) [Compound 47ab, 5-Methoxy-6-(4-methoxyphenyl)-1-phenyl-hexan-3-one] | 28.5 | 4 | – |
| CC(O)(CC(=O)CCc1ccccc1)c1ccccc1 (stereo not drawn) [Compound 57ab, 5-Hydroxy-1,5-diphenyl-hexan-3-one] | – | – | ERα in vitro activity (receptor activation relative to 10 nM E2) (ERα): 52.1%; Emax at 10 µM (ERβ; [2]): 38.4% |
| COC(CCc1ccccc1)CC(=O)Cc1ccccc1 (stereo not drawn) [Compound 44ab, 4-Methoxy-1,6-diphenyl-hexan-2-one] | 12.0 | 0.2 | – |
| CC(O)(CC(=O)CCc1ccc(O)cc1)c1ccccc1 (stereo not drawn) [Compound 23ab, 5-Hydroxy-1-(4-hydroxy-phenyl)-5-phenyl-hexan-3-one] | 80.3 | 116 | – |
